Laboratory results as given in patent US20060106099A1, “Novel inhibitors of ubiquitin isopeptidases” (priority 2002, published 2006).
Where two headings read alike, the source gives them in different places.

Assays:
[1] = system: ubiquitin isopeptidases; test: Ubiquitin isopeptidase activity, z-LRGG-AMC substrate, lysates of treated RKO and HCT 116 cells; assay type: cell-based, human; conditions: cells treated 6, 20 or 60 μM, 12 h
Method: RKO (upper) and HCT 116 ^+/+ cells (lower) were treated with DMSO vehicle, 6, 20, or 60 μM of Δ12-PGJ2, DBA, NSC-302979, or curcumin, 60 μM PGB1, 60 μM NSC-156236, or 60 μM DPTP for 12 h at 37° C. Cell lysates (0.5 mg/mL) from each treatment were incubated with the isopeptidase substrate, z-LRGG-AMC, for 3 h, 37° C. The amount of AMC cleaved by isopeptidase was determined fluorometrically, as described in Materials and Methods.
The second assay used a fluorescent tetrapeptide, z-LRGG-AMC, as a substrate that mimics the carboxy-terminus of ubiquitin. Isopeptidase activity hydrolyzes the bond between the c-terminal glycine and the fluorophore. This tetrapeptide also undergoes slow proteolysis by the catalytic subunit of the proteasome. To minimize this background rate of proteolysis cell lysates were incubated with 30 μM MG115 for 30 minutes at 4° C., prior to substrate incubation (>90% proteasome inhibition). Cells were teeated as above, lysed in 250 μL of lysis buffer per sample, and adjusted protein concentration to 0.5 mg/mL prior to incubation with MG115. Next, z-LRGG-AMC substrate was added and fluorescence was quantified of the AMC moiety cleaved by isopeptidase action.

[2] = system: HCT 116 +/+ cells; test: MTT cell viability assay, HCT 116 p53 +/+ cells; conditions: for cell death in HCT 116 +/+ compared with HCT 116 −/− cells: 48 h, MTT, isogenic pair; for EC50: Homo sapiens, HCT-116, 48 h, read-out: Cytotoxic Potency (EC50) HCT +/+
[3] = system: ubiquitin isopeptidases; test: Ubiquitin isopeptidase activity, Ub-PEST substrate, lysates of treated RKO and HCT 116 cells; assay type: cell-based, human; conditions: cells treated 6, 20 or 60 μM, 12 h
Method: A) Inhibition of isopeptidase proteolysis of Ub-PEST substrate. RKO and HCT 116 cells were treated with DMSO vehicle, 6, 20, or 60 μM of Δ12-PGJ2, DBA, NSC-302979, or curcumin, 60 μM PGB1, 60 μM NSC-156236, or 60 μM DPTP for 12 h, 37° C. Cell lysates from each treatment were incubated with Ub-PEST, as described in materials and methods. Samples were fractionated by SDS-PAGE and proteins detected with ubiquitin epitopes immunochemically (HCT 116 ^+/+ western blot shown as example of raw data). […] B) Inhibition of isopeptidase activity by test panel compounds. Isopeptidase activity was determined by measuring via densitometry, the amount of Ub generated by isopeptidase cleavage of Ub-PEST. Bar graph patterns are DMSO vehicle (black), Δ12-PGJ2 (hatched), DBA (horizontal lines), NSC-302979 (white), PGB1 (diagonally downward right lines), and NSC-156236 (diagonally downward left lines). The amount of Ub generated in the vehicle treated sample (panel A, lane 2) is arbitrarily designated 100%.
Cellular isopeptidase enzymatic activity was measured with two assays that used different substrates. In one assay ubiquitin-PEST (Ub-PEST) was used, a full-length ubiquitin molecule with an 18 amino acid c-terminal peptide extension (total mass=10.5 kDa). Ubiquitin isopeptidases specifically cleave the 18 amino acid peptide extension, releasing full-length ubiquitin (8.5 kDa).
Briefly, 6×10^5 cells were incubated with 0-60 μM of test compounds for 12 hrs. Cells were lysed in 50 μL of 25 mM HEPES, 5 mM EDTA, 0.1% CHAPS, 5 mM ATP, pH 7.5. The protein concentration of each sample was adjusted to 0.3 mg/mL and incubated with 50 μg/mL Ub-PEST for 45 minutes at 25° C. Under these conditions, Ub-PEST hydrolysis occurs at a linear rate. 20 μL samples were mixed with 20 μL 2× Laemmli buffer, boiled briefly, and fractionated by SDSPAGE. Isopeptidase activity was monitored by determining the amount of product (8.5 kDa ubiquitin) formation.

[4] = system: p53; test: p53 accumulation, ratio RKO-E6 cells/RKO cells (immunoblot, densitometry); assay type: cell-based, human; conditions: 6 h; etoposide 50 μM, MG115, NSC-302979, DBA 20 μM, others 60 μM
Method: (§1) A) Accumulation of polyubiquitin. RKO-E6 cells were treated with DMSO vehicle for 24 h, 37° C., or with the concentrations of test compounds that gave 80% cell death (as determined by cell viability assay at 48 h) for 6, 12, or 24 h, 37° C. […] Schematic depicting p53 degradation via the proteasome pathway in RKO cells versus RKO-E6 cells. The activity of the HPV E6 oncoprotein hastens p53 degradation in RKO-E6 cells. ii. RKO and RKO-E6 cells were treated with vehicle, etoposide (50 μM), MG115 (20 μM), Δ12-PGJ2 (60 μM), NSC-302979 (20 μM, DBA (20 μM), curcumin (60 μM), PGB1 (60 μM), NSC-156236, (60 XM)or DPTP 60 μM for 6 h, 37° C. Lysates were fractionated by SDS-PAGE and their p53 content determined immunochemically. iii. p53 levels were measured by densitometry and the ratio of p53 protein in RKO-E6 cells/RKO cells calculated.
(§2) The medium was removed and cells lysed in 50 mM Tris, pH 7.4, 100 mM NaCl, 2 mM EDTA with 0.1% SDS, 0.1% deoxycholate, 1× complete protease inhibitor mixture. Protein concentration was measured by the Bradford method. Equal portions of the total cell lysate were fractionated from each sample (12.5 μg of protein) by SDS-PAGE. Proteins were transferred to poly(vinylidene difluoride) blocked with 5% (w/v) nonfat dry milk in Trisbuffered saline [20 mM Tris-HCl, pH 7.5, 100 mM sodium chloride, 0.1% (v/v) Tween 20]. Proteins were detected immunochemically by using primary antibodies directed against p53 (1:4000) or ubiquitin (1:1000), followed by horseradish peroxidase-conjugated secondary antibodies (1:4000). Antigen-antibody complexes were detected with enhanced chemiluminescence reagents. Gels were scanned and quantified intensities using Kodak 1D Image Analysis Software.

[5] = system: HCT 116 −/− cells; test: MTT cell viability assay, HCT 116 p53 −/− cells; conditions: Homo sapiens, HCT-116, 48 h, read-out: Cytotoxic Potency (EC50) HCT −/−
[6] = system: RKO cells; test: MTT cell viability assay, RKO cells; conditions: 48 h; for cell death in RKO compared with RKO-E6 cells: MTT, isogenic pair; for EC50: Homo sapiens, RKO, read-out: Cytotoxic Potency (EC50) RKO
Method: (§6) Cell viability was measured with MTT reagent as described in materials and methods.
(§7) Cell viability was detected by the MTT assay. Briefly, 1×10^5 cells were incubated per well of a sterile, 96-well assay plate with 0-60 μM of test compounds for 48 hours. MTT reagent was added to each well, final concentration of 0.5 mg/mL, and incubated for an additional 3 hours. The media was aspirated and remaining MTT reagent from each well and added 100 μL of HCl:isopropanol (1:24). The absorbance of each sample was measured at 405 nm.

[7] = system: polyubiquitin conjugates in RKO-E6 cells; test: Accumulation of polyubiquitin in RKO-E6 cells (immunoblot); assay type: cell-based, human; conditions: EC80 or 60 μM, 6-24 h
Method: as §1, §2

[8] = system: RKO-E6 cells; test: MTT cell viability assay, RKO-E6 cells; conditions: for EC50: Homo sapiens, RKOE6, 48 h, read-out: Cytotoxic Potency (EC50) RKO-E6
Method: as §6, §7

[9] = system: HCT 116 (p21 wt); test: MTS cytotoxicity, HCT 116 (p21 wt); assay type: cell-based; conditions: Homo sapiens, log of EC50 in μM, 48 h, read-out: Log EC50 +/− Standard Error of Log EC50, HCT 116 (p21 wt) (converted)
Description: (§3) Cytotoxicity in Human Colon Tumor (HCT) Cell Lines. To determine if punaglandins elicit cytotoxicity independently of the tumor-suppressor p53, as do other dienone prostaglandins, several cytotoxicity assays were employed. First, cell death effects of all isolated punaglandins were investigated in pairs of isogenic colon cancer cell lines, the HCT 116^+/+ competent cell line and HCT 116^−/− null cell lines. HCT 116^+/+ cells are homozygous for p53^+/+ and p21^+/+; where as, HCT 116^−/− cells lack both alleles for p53 (p53^−/−) or p21 (p21^−/−).
(§4) Each cell line was seeded simultaneously in 96-well plates and incubated for 24 h before treatment with individual punaglandins at various concentrations for 48 additional h. Cytotoxicity was determined using MTS and absorbances were recorded at 490 nm. Half maximal effective concentrations (EC50) and Log EC50s were calculated from a concentration-response curve generated using GraphPad Prism (Table 1).

[10] = system: HCT 116 (p21^−/−); test: MTS cytotoxicity, HCT 116 (p21−/−); assay type: cell-based; conditions: Homo sapiens, log of EC50 in μM, 48 h, read-out: Log EC50 +/− Standard Error of Log EC50, HCT 116 (p21−/−) (converted)
Description: as §3, §4

[11] = system: HCT 116 (p53^−/−); test: MTS cytotoxicity, HCT 116 (p53−/−); assay type: cell-based; conditions: Homo sapiens, log of EC50 in μM, 48 h, read-out: Log EC50 +/− Standard Error of Log EC50, HCT 116 (p53−/−) (converted)
Description: as §3, §4

[12] = system: HCT 116 (p53 wt); test: MTS cytotoxicity, HCT 116 (p53 wt); assay type: cell-based; conditions: Homo sapiens, 48 h
Description: as §3, §4

[13] = system: ubiquitin isopeptidases; test: In vitro isopeptidase activity in HCT 116 lysates, Ub-PEST; assay type: biochemical, human; conditions: HCT 116 lysates, 45 min
Method: (§5) Isopeptidase Assay. It was hypothesized that the punaglandins would inhibit ubiquitin-isopeptidase activity of the proteasome pathway as does the prostaglandin, Δ^12-PGJ2 (1), but with greater potency because of the chlorinated C-10. To validate this theory, cellular isopeptidase enzymatic activity was measured in vitro after treatment with individual punaglandins, PNG 2 (6), PNG 3 (7), and Z-PNG 4 (9) and in vivo after individual treatment with PNG 4 (8) and PNG 6 (10). This activity was determined utilizing the simple isopeptidase substrate, ubiquitin-PEST (Ub-PEST), a full/length ubiquitin (Ub) molecule fused with an 18-amino acid C-terminal peptide extension that most isopeptidases use as a substrate. The polypeptide extension contains regions rich in Pro (P), Glu (E), Ser (S), and Thr (T) residues called PEST motifs that are responsible for rapid degradation of these and other unstable proteins. Ub isopeptidases specifically cleave this peptide extension, yielding free, full-length Ub. Both the fused Ub-PEST (10.5 kDa) and the cleaved, free Ub (8.5 kDa) can be observed via immunochemical detection.
In Vitro Isopeptidase Activity. PNG 2 (6), PNG 3 (7), and Z-PNG 4 (9) were initially analyzed for isopeptidase activity in vitro in HCT 116 lysates. Cells were lysed with isopeptidase activity buffer and protein concentration adjusted to 0.3 mg/mL per sample. Each sample was subsequently incubated with 2 μM, 6 μM, 20 μM, 60 μM, or 200 μM of PNG 2 (6), PNG 3 (7), Z-PNG 4 (9), Δ^12-PGJ2 (1), and PGA1 (2) in addition to 50 μg/ml of Ub-PEST. Negative control cells were treated with vehicle (0.5% DMSO) and equivalent Ub-PEST. […] The amount of fused Ub-PEST and free Ub product was determined by SDS-PAGE fractionation.

[14] = system: ubiquitin isopeptidases; test: In vivo isopeptidase activity after treatment of RKO cells, Ub-PEST; assay type: cell-based, human; conditions: 6 h
Method: as §5
In vivo Isopeptidase Activity. To investigate whether punaglandins can inhibit isopeptidase activity in vivo, isopeptidase activity was analyzed after punaglandin treatment of RKO cells. PNG 4 (8) and PNG 6 (10) were selected for in vivo investigation because they differ only in enone functionality, where (8) is a dienone and (10) an enone. RKO cells were incubated with 1 μM, 4 μM, or 7 μM of PNG 4 (8) and PNG 6 (10). […] As a positive control, cells were treated with a known isopeptidase inhibitor, shikoccin (SK). After 6 h drug treatment, cells were lysed and protein concentration adjusted to 0.3 mg/mL per sample. Each sample was subsequently incubated with 50 μg/mL of Ub-PEST. The reaction was terminated after 20 min and the respective amounts of Ub-PEST (10 kDa) and free Ub product (8.5 kDa) were determined by SDS-PAGE fractionation.

[15] = log of EC50 in μM, read-out: Log EC50 +/− Standard Error of Log EC50, HCT 116 (p53 wt) (converted)

Row | SMILES | inhibition of z-LRGG-AMC hydrolysis by ubiquitin isopeptidases [1] | cell death in HCT 116 +/+ compared with HCT 116 −/− cells [2] | EC50 [2] | inhibition of isopeptidase cleavage of Ub-PEST [3] | ratio of p53 protein [RKO-E6 cells/RKO cells] [4] | EC50 [5] | cell death in RKO compared with RKO-E6 cells [6] | EC50 [6] | cellular accumulation of polyubiquitin conjugates [7] | EC50 [8] | EC50 [9] | EC50 [10] | EC50 [11] | EC50 [12, 15] | other results
1 | O=C(C=Cc1ccccc1)C=Cc1ccccc1 [DBA, dibenzylideneacetone] | inhibited ubiquitin isopeptidase activity | caused cell death with equal potency | 3200 ± 100 nM | inhibited isopeptidase activity in a concentration dependent manner | approached unity | 3800 ± 100 nM | caused cell death with equal potency and efficacy | 7000 ± 600 nM | protein species with polyubiquitin conjugation accumulated in cells | 6500 ± 1100 nM |  |  |  |  | EC80, concentration that gave 80% cell death ([8]; cell viability assay at 48 h, RKO-E6 cells): 12000 nM
2 | O=c1cc(-c2ccccc2)sc(-c2ccccc2)c1 [DPTP, 2,6-Diphenyl-4H-thiopyran-4-one] | did not | did not cause significant cell death | > 60000 nM | did not inhibit isopeptidase activity | significantly less than unity | > 60000 nM | did not cause significant cell death | > 60000 nM | did not cause appreciable cellular accumulation of ubiquitin conjugates | > 60000 nM |  |  |  |  | 
3 | CCCCC/C=C\C[C@@]1(O)C=C(Cl)C(=O)[C@@H]1[C@@H](OC(C)=O)[C@H](OC(C)=O)[C@H](CCCC(=O)OC)OC(C)=O [PNG 2] |  |  |  |  |  |  |  |  |  |  | 0.0468 µM | 0.0398 µM | 0.0398 µM | 0.0398 µM | 
4 | CC/C=C\C/C=C\C[C@@]1(O)C=C(Cl)C(=O)/C1=C/[C@H](OC(C)=O)[C@H](CCCC(=O)OC)OC(C)=O [PNG 3] |  |  |  |  |  |  |  |  |  |  | 0.288 µM | 0.295 µM | 0.372 µM | 0.324 µM | concentration at which inhibition of Ub-PEST degradation is initially observed [13]: 20 µM; concentration of complete (total) inhibition of Ub-PEST degradation [13]: 60 µM; EC50 ([12]; average over the three compounds, read-out: average EC50 of PNG 3, PNG 4 and PNG 6, cytotoxicity in HCT 116 cell lines): ~0.35 µM
5 | C[C@@H]1C[C@@H]([C@H](O)CC2CC(=O)NC(=O)C2)C(=O)[C@@H](C)C1 [cycloheximide] |  |  |  |  |  |  |  |  |  |  |  |  |  |  | effect on Ub-PEST degradation, control substances [14]: 1:1 ratio of Ub-PEST to free Ub
